Experimental data: article PMC3726224 (Developmental cell, 2013)
pIC50: −log10 of the molar value.

Columns and labels:
Format in all cases: biochemical
Erv1 = target: T1, Erv1 (Saccharomyces cerevisiae, UniProt P27882); assay: Amplex Red-HRP sulfhydryl oxidase assay with recombinant Erv1
T1 sequence (P27882 1-189): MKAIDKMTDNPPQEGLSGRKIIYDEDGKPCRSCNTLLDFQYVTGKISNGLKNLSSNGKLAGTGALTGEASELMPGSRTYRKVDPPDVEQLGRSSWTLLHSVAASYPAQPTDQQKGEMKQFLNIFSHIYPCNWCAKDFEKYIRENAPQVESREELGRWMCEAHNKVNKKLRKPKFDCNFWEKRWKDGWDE

Erv2 = target: T2, Erv2 (Saccharomyces cerevisiae, UniProt Q12284); assay: Amplex Red-HRP sulfhydryl oxidase assay
T2 sequence (Q12284 1-196): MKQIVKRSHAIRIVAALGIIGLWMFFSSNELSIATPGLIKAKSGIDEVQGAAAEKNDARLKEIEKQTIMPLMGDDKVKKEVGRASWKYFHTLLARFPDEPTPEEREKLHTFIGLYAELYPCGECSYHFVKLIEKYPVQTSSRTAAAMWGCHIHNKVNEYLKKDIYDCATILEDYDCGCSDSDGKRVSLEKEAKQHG

ALR = ALR (Homo sapiens, UniProt P55789); assay: Amplex Red-HRP sulfhydryl oxidase assay
Chain of ALR (P55789 whole entry): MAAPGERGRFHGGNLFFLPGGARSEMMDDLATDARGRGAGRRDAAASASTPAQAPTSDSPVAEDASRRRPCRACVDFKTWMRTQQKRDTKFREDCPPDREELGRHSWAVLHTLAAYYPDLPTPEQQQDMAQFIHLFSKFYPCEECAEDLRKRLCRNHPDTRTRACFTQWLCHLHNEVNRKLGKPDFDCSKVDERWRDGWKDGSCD

Oc1c(Cl)cc(Cl)cc1C=Nc1ccc(Nc2ccccc2)cc1 [MitoBloCK-6]
pIC50 (Erv1): 6.05 | pIC50 (Erv2): 5.85 | pIC50 (ALR): 6.15
